Assay results: ChEMBL document CHEMBL5046315, “CRCM5484: A BET-BDII Selective Compound with Differential Anti-leukemic Drug Modulation” (J Med Chem, 2022)
Active and inactive are the calls of the source. The rule behind the calls is not given here.

Experiments:
[1] = biological target: Bromodomain-containing protein 3 (Homo sapiens, UniProt Q15059); experiment: Inhibition of BRD3-BD1 domain (unknown origin) incubated for 6 hrs by HTRF method
[2] = biological target: Chromatin remodeling regulator CECR2 (Homo sapiens) (UniProt Q9BXF3); experiment: Binding affinity to partial length human CECR2 (P423 to D543 residues) expressed in bacterial system at 1 uM by BROMOscan method relative to control
[3] = biological target: Bromodomain-containing protein 4 (Homo sapiens, UniProt O60885); experiment: Inhibition of human partial length BRD4-BD2 (K333 to E460 residues) expressed in bacterial system at 1 uM by BROMOscan method relative to control
[4] = test system: K562; experiment: Cytotoxicity against human K562 cells assessed as reduction in cell viability incubated for 72 hrs; type: functional, cell-based; details: K562, 72 h
[5] = test system: CCRF-CEM; experiment: Potentiation of alisertib-induced antileukemic activity against human CCRF-CEM cells at 4.3 uM in presence of bone-marrow derived stromal cell-conditioned medium; type: functional, cell-based
[6] = test system: CCRF-CEM; experiment: Potentiation of AT9283-induced antileukemic activity against human CCRF-CEM cells at 4.3 uM in presence of bone-marrow derived stromal cell-conditioned medium; type: functional, cell-based
[7] = test system: CCRF-CEM; experiment: Potentiation of azacitidine-induced antileukemic activity against human CCRF-CEM cells at 4.3 uM in presence of bone-marrow derived stromal cell-conditioned medium; type: functional, cell-based
[8] = test system: CCRF-CEM; experiment: Potentiation of bortezomib-induced antileukemic activity against human CCRF-CEM cells at 4.3 uM in presence of bone-marrow derived stromal cell-conditioned medium; type: functional, cell-based
[9] = test system: CCRF-CEM; experiment: Potentiation of bosutinib-induced antileukemic activity against human CCRF-CEM cells at 4.3 uM in presence of bone-marrow derived stromal cell-conditioned medium; type: functional, cell-based
[10] = test system: CCRF-CEM; experiment: Potentiation of crenolatinib-induced antileukemic activity against human CCRF-CEM cells at 4.3 uM in presence of bone-marrow derived stromal cell-conditioned medium; type: functional, cell-based
[11] = test system: CCRF-CEM; experiment: Potentiation of erlotinib-induced antileukemic activity against human CCRF-CEM cells at 4.3 uM in presence of bone-marrow derived stromal cell-conditioned medium; type: functional, cell-based
[12] = test system: CCRF-CEM; experiment: Potentiation of GSK126-induced antileukemic activity against human CCRF-CEM cells at 4.3 uM in presence of bone-marrow derived stromal cell-conditioned medium; type: functional, cell-based
[13] = test system: CCRF-CEM; experiment: Potentiation of idelalisib-induced antileukemic activity against human CCRF-CEM cells at 4.3 uM in presence of bone-marrow derived stromal cell-conditioned medium; type: functional, cell-based
[14] = test system: CCRF-CEM; experiment: Potentiation of imatinib-induced antileukemic activity against human CCRF-CEM cells at 4.3 uM in presence of bone-marrow derived stromal cell-conditioned medium; type: functional, cell-based
[15] = test system: CCRF-CEM; experiment: Potentiation of JQ1-induced antileukemic activity against human CCRF-CEM cells at 4.3 uM in presence of bone-marrow derived stromal cell-conditioned medium; type: functional, cell-based
[16] = test system: CCRF-CEM; experiment: Potentiation of metformin -induced antileukemic activity against human CCRF-CEM cells at 4.3 uM in presence of bone-marrow derived stromal cell-conditioned medium; type: functional, cell-based
[17] = test system: CCRF-CEM; experiment: Potentiation of OTX015-induced antileukemic activity against human CCRF-CEM cells at 4.3 uM in presence of bone-marrow derived stromal cell-conditioned medium; type: functional, cell-based
[18] = test system: CCRF-CEM; experiment: Potentiation of prima1-induced antileukemic activity against human CCRF-CEM cells at 4.3 uM in presence of bone-marrow derived stromal cell-conditioned medium; type: functional, cell-based
[19] = test system: CCRF-CEM; experiment: Potentiation of temsirolimus-induced antileukemic activity against human CCRF-CEM cells at 4.3 uM in presence of bone-marrow derived stromal cell-conditioned medium; type: functional, cell-based
[20] = test system: U-937; experiment: Potentiation of AGI-5198-induced antileukemic activity against human U-937 cells at 4.3 uM in presence of bone-marrow derived stromal cell-conditioned medium; type: functional, cell-based
[21] = test system: U-937; experiment: Potentiation of arsenic-induced antileukemic activity against human U-937 cells at 4.3 uM in presence of bone-marrow derived stromal cell-conditioned medium; type: functional, cell-based
[22] = test system: U-937; experiment: Potentiation of carfilzomib-induced antileukemic activity against human U-937 cells at 4.3 uM in presence of bone-marrow derived stromal cell-conditioned medium; type: functional, cell-based
[23] = test system: U-937; experiment: Potentiation of erlotinib-induced antileukemic activity against human U-937 cells at 4.3 uM in presence of bone-marrow derived stromal cell-conditioned medium; type: functional, cell-based
[24] = test system: U-937; experiment: Potentiation of gileritinib-induced antileukemic activity against human U-937 cells at 4.3 uM in presence of bone-marrow derived stromal cell-conditioned medium; type: functional, cell-based
[25] = test system: U-937; experiment: Potentiation of hydroxychloroquine-induced antileukemic activity against human U-937 cells at 4.3 uM in presence of bone-marrow derived stromal cell-conditioned medium; type: functional, cell-based
[26] = test system: U-937; experiment: Potentiation of idelalisib-induced antileukemic activity against human U-937 cells at 4.3 uM in presence of bone-marrow derived stromal cell-conditioned medium; type: functional, cell-based
[27] = test system: U-937; experiment: Potentiation of JQ1-induced antileukemic activity against human U-937 cells at 4.3 uM in presence of bone-marrow derived stromal cell-conditioned medium; type: functional, cell-based
[28] = test system: U-937; experiment: Potentiation of palbociclib-induced antileukemic activity against human U-937 cells at 4.3 uM in presence of bone-marrow derived stromal cell-conditioned medium; type: functional, cell-based
[29] = test system: U-937; experiment: Potentiation of seliciclib-induced antileukemic activity against human U-937 cells at 4.3 uM in presence of bone-marrow derived stromal cell-conditioned medium; type: functional, cell-based
[30] = test system: U-937; experiment: Potentiation of venetoclax-induced antileukemic activity against human U-937 cells at 4.3 uM in presence of bone-marrow derived stromal cell-conditioned medium; type: functional, cell-based
[31] = test system: MOLM-14; experiment: Potentiation of AC-4-130-induced antileukemic activity against human MOLM-14 cells at 4.3 uM in presence of bone-marrow derived stromal cell-conditioned medium; type: functional, cell-based
[32] = test system: MOLM-14; experiment: Potentiation of AG-221-induced antileukemic activity against human MOLM-14 cells at 4.3 uM in presence of bone-marrow derived stromal cell-conditioned medium; type: functional, cell-based
[33] = test system: MOLM-14; experiment: Potentiation of BKM120-induced antileukemic activity against human MOLM-14 cells at 4.3 uM in presence of bone-marrow derived stromal cell-conditioned medium; type: functional, cell-based
[34] = test system: MOLM-14; experiment: Potentiation of bleomycine-induced antileukemic activity against human MOLM-14 cells at 4.3 uM in presence of bone-marrow derived stromal cell-conditioned medium; type: functional, cell-based
[35] = test system: MOLM-14; experiment: Potentiation of entinostat-induced antileukemic activity against human MOLM-14 cells at 4.3 uM in presence of bone-marrow derived stromal cell-conditioned medium; type: functional, cell-based
[36] = test system: MOLM-14; experiment: Potentiation of erlotinib-induced antileukemic activity against human MOLM-14 cells at 4.3 uM in presence of bone-marrow derived stromal cell-conditioned medium; type: functional, cell-based
[37] = test system: MOLM-14; experiment: Potentiation of GSK126-induced antileukemic activity against human MOLM-14 cells at 4.3 uM in presence of bone-marrow derived stromal cell-conditioned medium; type: functional, cell-based
[38] = test system: MOLM-14; experiment: Potentiation of MK2206-induced antileukemic activity against human MOLM-14 cells at 4.3 uM in presence of bone-marrow derived stromal cell-conditioned medium; type: functional, cell-based
[39] = test system: MOLM-14; experiment: Potentiation of navitoclax-induced antileukemic activity against human MOLM-14 cells at 4.3 uM in presence of bone-marrow derived stromal cell-conditioned medium; type: functional, cell-based
[40] = test system: MOLM-14; experiment: Potentiation of trametinib-induced antileukemic activity against human MOLM-14 cells at 4.3 uM in presence of bone-marrow derived stromal cell-conditioned medium; type: functional, cell-based

Sequence of Chromatin remodeling regulator CECR2 (Homo sapiens) (Q9BXF3 whole entry, looked up, the tested form may be a part): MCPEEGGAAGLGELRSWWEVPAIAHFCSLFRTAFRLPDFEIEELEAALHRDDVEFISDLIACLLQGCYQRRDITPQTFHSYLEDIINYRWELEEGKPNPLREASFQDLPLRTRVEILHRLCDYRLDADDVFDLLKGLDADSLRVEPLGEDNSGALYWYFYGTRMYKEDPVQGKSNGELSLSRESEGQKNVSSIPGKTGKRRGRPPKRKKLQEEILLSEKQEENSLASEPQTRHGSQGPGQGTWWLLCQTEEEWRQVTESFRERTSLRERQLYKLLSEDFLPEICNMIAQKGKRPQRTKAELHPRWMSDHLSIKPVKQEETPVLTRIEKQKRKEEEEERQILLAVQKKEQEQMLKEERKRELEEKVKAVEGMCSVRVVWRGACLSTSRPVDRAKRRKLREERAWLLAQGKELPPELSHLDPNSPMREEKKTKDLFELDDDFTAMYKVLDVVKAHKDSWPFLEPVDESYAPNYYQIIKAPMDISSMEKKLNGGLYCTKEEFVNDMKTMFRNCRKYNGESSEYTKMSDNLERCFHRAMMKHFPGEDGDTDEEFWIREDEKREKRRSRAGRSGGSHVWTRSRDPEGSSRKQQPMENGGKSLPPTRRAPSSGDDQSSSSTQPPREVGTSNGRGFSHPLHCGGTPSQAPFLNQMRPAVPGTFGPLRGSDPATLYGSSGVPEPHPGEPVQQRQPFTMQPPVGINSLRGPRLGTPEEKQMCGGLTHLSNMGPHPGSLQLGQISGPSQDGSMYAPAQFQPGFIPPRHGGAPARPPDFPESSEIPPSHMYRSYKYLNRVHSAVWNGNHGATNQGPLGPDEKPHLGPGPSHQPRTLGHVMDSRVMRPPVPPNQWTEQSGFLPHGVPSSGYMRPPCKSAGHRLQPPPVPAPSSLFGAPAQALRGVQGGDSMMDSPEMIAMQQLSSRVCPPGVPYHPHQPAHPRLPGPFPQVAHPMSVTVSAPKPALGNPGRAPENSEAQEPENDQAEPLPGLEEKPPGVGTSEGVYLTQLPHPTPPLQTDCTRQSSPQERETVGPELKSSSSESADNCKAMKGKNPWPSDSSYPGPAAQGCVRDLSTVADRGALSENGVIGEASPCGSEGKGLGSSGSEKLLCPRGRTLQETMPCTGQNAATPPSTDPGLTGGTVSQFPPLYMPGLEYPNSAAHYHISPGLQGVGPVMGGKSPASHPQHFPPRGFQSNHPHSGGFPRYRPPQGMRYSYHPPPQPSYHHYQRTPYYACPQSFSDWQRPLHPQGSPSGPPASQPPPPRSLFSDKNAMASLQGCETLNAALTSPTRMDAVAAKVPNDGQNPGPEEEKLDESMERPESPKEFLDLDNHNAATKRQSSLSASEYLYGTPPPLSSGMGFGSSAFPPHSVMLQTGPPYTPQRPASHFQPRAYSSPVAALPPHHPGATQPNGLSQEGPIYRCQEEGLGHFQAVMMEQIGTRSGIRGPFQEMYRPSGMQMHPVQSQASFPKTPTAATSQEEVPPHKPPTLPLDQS
Sequence of Bromodomain-containing protein 3 (Q15059 whole entry, the tested form may be a part): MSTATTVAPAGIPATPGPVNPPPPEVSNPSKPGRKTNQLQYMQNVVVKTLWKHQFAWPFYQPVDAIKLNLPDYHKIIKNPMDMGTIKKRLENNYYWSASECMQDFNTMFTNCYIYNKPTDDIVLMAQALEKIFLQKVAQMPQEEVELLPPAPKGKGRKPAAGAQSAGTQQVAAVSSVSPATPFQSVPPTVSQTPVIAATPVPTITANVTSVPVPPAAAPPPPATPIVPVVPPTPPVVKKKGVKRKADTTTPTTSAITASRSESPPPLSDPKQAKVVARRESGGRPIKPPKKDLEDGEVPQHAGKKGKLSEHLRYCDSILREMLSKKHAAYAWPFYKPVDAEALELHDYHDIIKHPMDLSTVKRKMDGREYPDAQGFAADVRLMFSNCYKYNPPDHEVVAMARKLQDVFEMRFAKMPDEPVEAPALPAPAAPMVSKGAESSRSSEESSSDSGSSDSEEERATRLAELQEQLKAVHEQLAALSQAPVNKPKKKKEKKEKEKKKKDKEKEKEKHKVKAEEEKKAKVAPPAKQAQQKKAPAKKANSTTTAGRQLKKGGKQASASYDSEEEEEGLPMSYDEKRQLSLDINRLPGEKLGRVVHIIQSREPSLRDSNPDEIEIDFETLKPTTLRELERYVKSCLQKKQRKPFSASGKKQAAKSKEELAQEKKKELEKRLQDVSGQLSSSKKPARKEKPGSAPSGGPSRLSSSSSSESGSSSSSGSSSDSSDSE

Q: `CC(=O)N1CCc2c(sc3nc(SCC(=O)Nc4cccnc4C)n(Cc4ccco4)c(=O)c23)C1` was tested. Which IC50 [1] did it give?
A: Its IC50 is 9.5 µM.

Q: What about the Activity [2] of the same molecule?
A: The Activity was 54%.

Q: And the inhibition [3]?
A: Its inhibition is 41%.

Q: What about the EC50 [4] of the same molecule?
A: Its EC50 is > 5 µM.

Q: And the Activity [5]?
A: The Activity was “inactive”.

Q: What about the Activity [6] of the same molecule?
A: The Activity was “inactive”.

Q: What about the Activity [7] of the same molecule?
A: Its Activity is “inactive”.

Q: And the Activity [8]?
A: Its Activity is “inactive”.

Q: What about the Activity [9] of the same molecule?
A: The Activity was “inactive”.

Q: What about the Activity [10] of the same molecule?
A: Its Activity is “inactive”.

Q: And the Activity [11]?
A: Its Activity is “inactive”.

Q: And the Activity [12]?
A: Its Activity is “inactive”.

Q: And the Activity [13]?
A: Its Activity is “inactive”.

Q: What about the Activity [14] of the same molecule?
A: The Activity was “inactive”.

Q: What about the Activity [15] of the same molecule?
A: The Activity was “inactive”.

Q: And the Activity [16]?
A: Its Activity is “inactive”.

Q: And the Activity [17]?
A: Its Activity is “inactive”.

Q: What about the Activity [18] of the same molecule?
A: The Activity was “inactive”.

Q: And the Activity [19]?
A: Its Activity is “inactive”.

Q: And the Activity [20]?
A: The Activity was “inactive”.

Q: What about the Activity [21] of the same molecule?
A: Its Activity is “inactive”.

Q: And the Activity [22]?
A: The Activity was “inactive”.

Q: And the Activity [23]?
A: Its Activity is “inactive”.

Q: And the Activity [24]?
A: Its Activity is “inactive”.

Q: What about the Activity [25] of the same molecule?
A: Its Activity is “inactive”.

Q: And the Activity [26]?
A: Its Activity is “inactive”.

Q: And the Activity [27]?
A: The Activity was “inactive”.

Q: What about the Activity [28] of the same molecule?
A: Its Activity is “inactive”.

Q: What about the Activity [29] of the same molecule?
A: Its Activity is “inactive”.

Q: What about the Activity [30] of the same molecule?
A: The Activity was “inactive”.

Q: What about the Activity [31] of the same molecule?
A: Its Activity is “inactive”.

Q: What about the Activity [32] of the same molecule?
A: The Activity was “inactive”.

Q: What about the Activity [33] of the same molecule?
A: Its Activity is “inactive”.

Q: What about the Activity [34] of the same molecule?
A: The Activity was “inactive”.

Q: What about the Activity [35] of the same molecule?
A: The Activity was “inactive”.

Q: What about the Activity [36] of the same molecule?
A: Its Activity is “inactive”.

Q: And the Activity [37]?
A: Its Activity is “inactive”.

Q: What about the Activity [38] of the same molecule?
A: Its Activity is “inactive”.

Q: What about the Activity [39] of the same molecule?
A: Its Activity is “inactive”.

Q: And the Activity [40]?
A: Its Activity is “inactive”.
